# Data as given in patent publication US9376391B2, “Difluoromethyl-nicotinic-tetrahydronaphthyl carboxamides as fungicides” (BAYER CROPSCIENCE AKTIENGESELLSCHAFT, priority 2012, dated 2016).
# Legend:
# [1] = log P by HPLC on reversed phase columns (EEC directive 79/831 Annex V.A8); assay type: physicochemical; conditions: Table 1, formula (I); HPLC/LC-MS at pH 2.7, 0.1% formic acid in water / acetonitrile, gradient 10% to 95%
# Septoria tritici = experiment: In vivo preventive test on Septoria tritici (leaf spot on wheat); conditions: 500 ppm, preventive spray, wheat plants, grading 24 days after contamination
# Method in brief: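 Wheat cv. Scipion sprayed preventively at 1-leaf stage; inoculated 24 h later with Septoria tritici spores (500 000 spores per ml). Incubation 72 h at 18 °C, 100% RH, then 21 days at 90% RH; % efficacy graded 24 days after contamination against solvent-treated controls.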
# Phakopsora pachyrhizi = experiment: Phakopsora test (soybeans)/preventive; assay type: in vivo; conditions: 100 ppm of active ingredient, evaluated 7 days after inoculation
# Protocol: Phakopsora Test (Soybeans)/Preventive
# (§1) To produce a suitable preparation of active compound, 1 part by weight of active compound is mixed with the stated amounts of solvent and emulsifier, and the concentrate is diluted with water to the desired concentration.
# (§2) To test for preventive activity, young plants are sprayed with the preparation of active compound at the stated rate of application. After the spray coating has dried on, the plants are inoculated with an aqueous spore suspension of the causal agent of soybean rust (Phakopsora pachyrhizi) and stay for 24 h without light in an incubation cabinet at approximately 24° C. and a relative atmospheric humidity of 95%.
# The plants remain in the incubation cabinet at approximately 24° C. and a relative atmospheric humidity of approximately 80% and a day/night interval of 12 h.
# The test is evaluated 7 days after the inoculation. 0% means an efficacy which corresponds to that of the untreated control, while an efficacy of 100% means that no disease is observed.
# Botrytis cinerea = experiment: In vivo preventive test on Botrytis cinerea (grey mould), gherkin plants
# Method in brief: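 Gherkin plants sprayed at Z11 cotyledon stage with compound in acetone/tween/DMSO/water, inoculated 24 h later with B. cinerea spores (50 000 spores per ml) in nutrient solution. Kept at 17° C., 90% relative humidity; % efficacy graded 4 to 5 days post-inoculation versus solvent-treated controls.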
# Sphaerotheca fuliginea = experiment: In vivo preventive test on Sphaerotheca fuliginea (powdery mildew on cucurbits)
# Method in brief: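 Gherkin plants at Z11 cotyledon stage were sprayed with compound in acetone/tween/DMSO/water. After 24 h they were inoculated with S. fuliginea spores (100 000 spores per ml) and incubated at about 20° C and 70-80% RH. Percent efficacy versus solvent-treated controls was scored 12 days post-inoculation.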
# Puccinia recondita = experiment: In vivo preventive test on Puccinia recondita (brown rust on wheat)
# Method in brief: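 Wheat seedlings ("Scipion") sprayed with compound at the 1-leaf stage, inoculated 24 h later with Puccinia recondita spores (100 000 spores per ml). Incubated 24 h at 20° C and 100% RH, then 10 days at 20° C and 70-80% RH. Efficacy (%) versus solvent-treated controls graded 12 days after contamination.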
# Alternaria brassicae = experiment: In vivo preventive test on Alternaria brassicae (leaf spot on radish); conditions: dose 500 ppm, spray, graded 6 days after contamination vs control plants
# Method in brief: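 Radish cv. Pernod Clair at cotyledon stage (grown 17 °C) sprayed with compound in acetone/tween/DMSO/water, then inoculated 24 h later with A. brassicae spores (50 000 spores per ml). Incubation 20 °C, 100% RH; % efficacy graded 6 days post-inoculation versus solvent-treated controls.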
# Venturia inaequalis = experiment: Venturia test (apples)/preventive; assay type: in vivo; conditions: 100 ppm of active ingredient, evaluated 10 days after inoculation
# Protocol: Venturia Test (Apples)/Preventive
# as §1
# as §2, with “conidia” for “spore”, “apple scab (Venturia inaequalis)” for “soybean rust (Phakopsora pachyrhizi)”, “then remain” for “stay”, “1 day” for “24 h without light”, “20°” for “24°”, “100%.” for “95%.”
# The plants are then placed in a greenhouse at approximately 21° C. and a relative atmospheric humidity of approximately 90%.
# The test is evaluated 10 days after the inoculation. 0% means an efficacy which corresponds to that of the untreated control, while an efficacy of 100% means that no disease is observed.
# [2] = dose 100 ppm of active ingredient, comparison with known compounds
# [3] = dose 100 ppm, comparison with known compounds, same conditions
compound,measurement,setting,value
CC1CC(C)(C)c2cccc(NC(=O)c3cccnc3C(F)F)c21 (centres unmarked) [Example 1],logP^[a],[1],3.29^[a]
same,Eff. %,Septoria tritici,100%
same,Eff. %,Phakopsora pachyrhizi,99%
same,protection (in words),Botrytis cinerea; [2],total protection
same,Efficacy,Botrytis cinerea; [3],100%
same,Eff. %,"Botrytis cinerea; dose 500 ppm, gherkin, spray, graded 4 to 5 days after contamination vs control plants",100%
same,Eff. %,"Sphaerotheca fuliginea; 500 ppm, preventive spray, gherkin plants, grading 12 days after contamination",100%
same,protection (in words),Sphaerotheca fuliginea; [2],total protection
same,Efficacy,"Sphaerotheca fuliginea; dose 100 ppm, comparison with prior-art compounds, gherkin plants, grading 12 days after contamination",100%
same,protection (in words),Puccinia recondita; [2],total protection
same,Efficacy,Puccinia recondita; [3],100%
same,Eff. %,"Puccinia recondita; dose 500 ppm, wheat, spray, graded 12 days after contamination vs control plants",100%
same,Eff. %,Alternaria brassicae,92%
same,Eff. %,Venturia inaequalis,100%
